Data published in patent publication US6506766B1 (Abbott Laboratories, priority 1998, dated 2003).
Read-outs that look alike come from different tables or passages of the source.

Key:
[1] = molecular target: T1, human progesterone receptor-A [PRA] isoform (Homo sapiens, UniProt P06401); assay: Radioligand binding with human progesterone receptor cytosol ([3H]-progesterone competition); details: PRA cytosol expressed in insect SF21 cells, [3H]Prog ~0.8 nM, 4° C. overnight; Ki by Cheng-Prusoff, KL ~4.5 nM; read-out: Ki (nM) PR
T1 construct: host or cells: insect SF21 cells (baculovirus)
T1 sequence (P06401 1-769 isoform P06401-2): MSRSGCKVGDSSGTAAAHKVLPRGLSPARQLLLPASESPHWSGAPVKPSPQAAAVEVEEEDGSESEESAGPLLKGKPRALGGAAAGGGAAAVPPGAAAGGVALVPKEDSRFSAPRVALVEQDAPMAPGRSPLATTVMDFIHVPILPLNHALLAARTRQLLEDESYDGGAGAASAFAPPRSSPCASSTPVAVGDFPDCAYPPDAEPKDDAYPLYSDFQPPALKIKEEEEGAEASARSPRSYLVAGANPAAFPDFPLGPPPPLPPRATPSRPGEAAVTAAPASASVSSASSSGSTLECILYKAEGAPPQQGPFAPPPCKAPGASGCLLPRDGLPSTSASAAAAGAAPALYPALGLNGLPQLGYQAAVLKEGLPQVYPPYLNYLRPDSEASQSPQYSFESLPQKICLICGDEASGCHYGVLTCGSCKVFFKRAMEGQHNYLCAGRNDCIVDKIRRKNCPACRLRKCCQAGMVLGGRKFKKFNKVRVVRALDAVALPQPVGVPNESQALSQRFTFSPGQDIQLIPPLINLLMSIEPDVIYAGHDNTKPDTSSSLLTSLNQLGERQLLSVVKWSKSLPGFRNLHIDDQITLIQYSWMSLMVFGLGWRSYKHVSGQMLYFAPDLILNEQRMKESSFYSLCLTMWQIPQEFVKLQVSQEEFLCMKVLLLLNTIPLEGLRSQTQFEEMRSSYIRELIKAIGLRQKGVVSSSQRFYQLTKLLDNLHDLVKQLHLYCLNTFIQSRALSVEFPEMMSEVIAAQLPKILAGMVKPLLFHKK

[2] = molecular target: T2, human glucocorticoid receptor-α [GRX] isoform (Homo sapiens, UniProt P04150); assay: Radioligand binding with human glucocorticoid receptor cytosol ([3H]-dexamethasone competition); details: GRX cytosol expressed in insect SF21 cells, [3H]-Dex ~0.9 nM, 4° C. overnight, Ki by Cheng-Prusoff, KL ~[…]
T2 construct: host or cells: insect SF21 cells (baculovirus)
T2 sequence (P04150 1-777): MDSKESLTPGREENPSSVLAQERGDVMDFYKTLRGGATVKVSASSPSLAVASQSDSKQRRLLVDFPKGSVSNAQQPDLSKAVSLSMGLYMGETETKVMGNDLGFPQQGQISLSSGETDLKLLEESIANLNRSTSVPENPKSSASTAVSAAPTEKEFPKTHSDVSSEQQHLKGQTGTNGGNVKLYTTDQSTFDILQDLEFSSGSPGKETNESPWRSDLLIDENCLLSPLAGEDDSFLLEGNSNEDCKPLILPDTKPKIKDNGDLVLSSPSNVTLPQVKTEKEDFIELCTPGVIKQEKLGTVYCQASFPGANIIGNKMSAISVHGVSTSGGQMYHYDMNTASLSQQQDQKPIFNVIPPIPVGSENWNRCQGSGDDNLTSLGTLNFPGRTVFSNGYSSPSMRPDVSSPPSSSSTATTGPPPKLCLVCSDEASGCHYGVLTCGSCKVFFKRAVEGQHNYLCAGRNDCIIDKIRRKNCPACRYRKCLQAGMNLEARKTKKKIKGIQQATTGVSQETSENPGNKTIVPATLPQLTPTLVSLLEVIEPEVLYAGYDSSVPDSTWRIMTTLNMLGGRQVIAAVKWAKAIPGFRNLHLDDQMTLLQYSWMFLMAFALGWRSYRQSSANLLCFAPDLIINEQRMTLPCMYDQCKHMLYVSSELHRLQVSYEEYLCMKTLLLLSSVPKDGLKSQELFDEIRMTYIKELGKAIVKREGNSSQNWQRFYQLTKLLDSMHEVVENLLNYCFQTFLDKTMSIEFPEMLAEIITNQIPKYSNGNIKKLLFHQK

SMILES | Ki [1] | Ki ([2]; read-out: Ki (nM) GR) | Ki ([2]; Ki (nM) GR)
COc1c(O)ccc2c1-c1ccc3c(c1/C(=C/c1cc(F)ccc1F)O2)C(C)=CC(C)(C)N3 [Example 366, Z-5-(2,5-Difluorobenzylidenyl)-9-hydroxy-10-methoxy-2,2,4-trimethyl-1H-2,5-dihydro-[1]benzopyrano[3,4-f]quinoline] | 83.9 nM | 2.1 nM | –
CC1=CC(C)(C)Nc2ccc3c(c21)/C(=C/c1ccccn1)Oc1ccc(O)c(Cl)c1-3 [Example 368, Z-10-Chloro-9-hydroxy-5-(2-picolinylidenyl)-2,2,4-trimethyl-2,5-dihydro-1H-[1]benzopyrano[3,4-f]quinoline] | 61 nM | 0.21 nM | –
COc1c(O)ccc2c1-c1ccc3c(c1/C(=C/c1ccccn1)O2)C(C)=CC(C)(C)N3 [Example 369, Z-9-Hydroxy-10-methoxy-5-(2-picolinylidenyl)-2,2,4-trimethyl-2,5-dihydro-1H-[1]benzopyrano[3,4-f]quinoline] | 2530 nM | 0.41 nM | –
COc1c(O)ccc2c1-c1ccc3c(c1/C(=C/c1ccc(F)cc1)O2)C(C)=CC(C)(C)N3 [Example 372, (Z)9-Hydroxy-10-methoxy-5-((4-fluorophenyl)methylene)-2,2,4-trimethyl-1H-2,5-dihydro-[1]benzopyrano[3,4-f]quinoline] | 164 nM | 1.8 nM | –
COc1c(O)ccc2c1-c1ccc3c(c1/C(=C/c1cccc(F)c1F)O2)C(C)=CC(C)(C)N3 [Example 373, (Z)-9-Hydroxy-10-methoxy-5-([2,3-difluorophenyl]methylene)-2,2,4-trimethyl-1H-2,5-dihydro-[1]benzopyrano[3,4-f]quinoline] | 279 nM | 3.1 nM | –
COc1c(O)ccc2c1-c1ccc3c(c1/C(=C/c1cccc(F)c1)O2)C(C)=CC(C)(C)N3 [Example 374, Z-5-(3-Fluorobenzylidenyl)-10-methoxy-9-hydroxy-2,2,4-trimethyl-2,5-dihydro-1H-[1]benzopyrano[3,4-f]quinoline] | 222 nM | 9 nM | –
CCC1Oc2ccc(O)c(OC)c2-c2ccc3c(c21)C(C)=CC(C)(C)N3 (stereo not drawn) [Example 376, 9-Hydroxy-10-methoxy-5-ethyl-2,2,4-trimethyl-2,5-dihydro-1H-[1]benzopyrano[3,4-f]quinoline] | 156 nM | 0.78 nM | –
C=CCC1Oc2ccc(OC(=O)CCC(=O)N(CC)CC)c(OC)c2-c2ccc3c(c21)C(C)=CC(C)(C)N3 (stereo not drawn) [Example 378, 2,5-Dihydro-9-(4-N,N-diethylamino-4-oxo-butanoyloxy)-10-methoxy-2,2,4-trimethyl-5-(2-propenyl)-1H-[1]benzopyrano[3,4-f]quinoline] | 440 nM | 1.1 nM | –
C=CCC1Oc2ccc(OC(=O)CCC(=O)N3CCCCC3)c(OC)c2-c2ccc3c(c21)C(C)=CC(C)(C)N3 (stereo not drawn) [Example 379, 2,5-Dihydro-9-(4-N-piperidino-4-oxo-butanoyloxy)-10-methoxy-2,2,4-trimethyl-5-(2-propenyl)-1H-[1]benzopyrano[3,4-f]quinoline] | 175 nM | 1.4 nM | –
C=CCC1Oc2ccc(OC(=O)CCC(=O)N3CCOCC3)c(OC)c2-c2ccc3c(c21)C(C)=CC(C)(C)N3 (stereo not drawn) [Example 380, 2,5-Dihydro-9-(4-N-morpholino-4-oxo-butanoyloxy)-10-methoxy-2,2,4-trimethyl-5-(2-propenyl)-1H-[1]benzopyrano[3,4-f]quinoline] | 204 nM | 1.2 nM | –
COc1c(OC(=O)CCC(=O)N(C)C)ccc2c1-c1ccc3c(c1C(c1cc(F)c(F)c(F)c1)O2)C(C)=CC(C)(C)N3 (stereo not drawn) [Example 381, 2,5-Dihydro-9-(4-N,N-dimethylamino-4-oxo-butanoyloxy)-10-methoxy-2,2,4-trimethyl-5-(3,4,5-trifluorophenyl)-1H-[1]benzopyrano[3,4-f]quinoline] | 9820 nM | 7.1 nM | –
CC1=CC(C)(C)Nc2ccc3c(c21)C(c1cccs1)Oc1ccc(O)c(Cl)c1-3 (stereo not drawn) [Example 383, 2,5-Dihydro-9-hydroxy-10-chloro-2,2,4-trimethyl-5-(2-thienyl)-1H-[1]benzopyrano[3,4-f]quinoline] | 46 nM | 4.8 nM | –
COc1c(O)ccc2c1-c1ccc3c(c1C(C1CCCC1)O2)C(C)=CC(C)(C)N3 (stereo not drawn) [Example 384, 2,5-Dihydro-9-hydroxy-10-methoxy-2,2,4-trimethyl-5-cyclopentyl-1H-[1]benzopyrano[3,4-f]quinoline] | 197 nM | 0.67 nM | –
C=CCC1Oc2ccc(CO)c(OC)c2-c2ccc3c(c21)C(C)=CC(C)(C)N3 (stereo not drawn) [Example 386, 2,5-Dihydro-9-hydroxymethyl-10-methoxy-2,2,4-trimethyl-5-allyl-1H-[1]benzopyrano[3,4-f]quinoline] | 105 nM | 6.5 nM | –
C=CCCCC1Oc2ccc(O)c(OC)c2-c2ccc3c(c21)C(C)=CC(C)(C)N3 (stereo not drawn) [Example 387] | 169 nM | 0.65 nM | –
C=CCC1Oc2ccc(C(=O)OC)c(OC)c2-c2ccc3c(c21)C(C)=CC(C)(C)N3 (stereo not drawn) [Example 388, 2,5-Dihydro-9-methylcarboxylate-10-methoxy-2,2,4-trimethyl-5-allyl-1H-[1]benzopyrano[3,4-f]quinoline] | 199 nM | 2.8 nM | –
C=C=CC1Oc2ccc(O)c(OC)c2-c2ccc3c(c21)C(C)=CC(C)(C)N3 (stereo not drawn) [Example 389, 2,5-Dihydro-9-hydroxy-10-methoxy-2,2,4-trimethyl-5-allenyl-1H-[1]benzopyrano[3,4-f]quinoline] | 27.5 nM | 0.58 nM | –
COc1cccc2c1-c1ccc3c(c1[C@H]([C@H]1C=CCCC1)O2)C(C)=CC(C)(C)N3 [Example 392, (−)(5S,3′R)2,5-Dihydro-10-methoxy-2,2,4-trimethyl-5-(cyclohexen-3-yl)-1H-[1]benzopyrano[3,4-f]quinoline] | 487 nM | – | 1.2 nM
CC/C=C\CC1Oc2ccc(O)c(OC)c2-c2ccc3c(c21)C(C)=CC(C)(C)N3 (stereo not drawn) [Example 394] | 109 nM | 0.89 nM | –
COc1c(O)ccc2c1-c1ccc3c(c1C(c1cccc(OC(C)=O)c1)O2)C(C)=CC(C)(C)N3 (stereo not drawn) [Example 395, 2,5-Dihydro-9-hydroxy-10-methoxy-2,2,4-trimethyl-5-(3-acetoxyphenyl)-1H-[1]benzopyrano[3,4-f]quinoline] | 1210 nM | 2.1 nM | –
CSCOc1cccc(C2Oc3cccc(OC(F)F)c3-c3ccc4c(c32)C(C)=CC(C)(C)N4)c1 (stereo not drawn) [Example 396] | 2120 nM | 6.3 nM | –
COc1c(O)ccc2c1-c1ccc3c(c1C(c1cccc(O)c1)O2)C(C)=CC(C)(C)N3 (stereo not drawn) [Example 398, 2,5-Dihydro-9-hydroxy-10-methoxy-2,2,4-trimethyl-5-(3-hydroxyphenyl)-1H-[1]benzopyrano[3,4-f]quinoline] | 1080 nM | 6.7 nM | –
COc1c(O)ccc2c1-c1ccc3c(c1C(c1cccc(OCSC)c1)O2)C(C)=CC(C)(C)N3 (stereo not drawn) [Example 400, 2,5-Dihydro-9-hydroxy-10-methoxy-2,2,4-trimethyl-5-(3-(methylthiomethoxy)phenyl)-1H-[1]benzopyrano[3,4-f]quinoline] | 5960 nM | 3.5 nM | –
CC1=CC(C)(C)Nc2ccc3c(c21)C(=Cc1ccccc1)Oc1ccc(O)c(Cl)c1-3 [Example 401, 9-Hydroxy-10-chloro-5-(phenylmethylene)-2,2,4-trlimethyl-1H-2,5-dihydro-[1]benzopyrano[3,4-f]quinoline] | 6080 nM | 134 nM | –
